From publication PMC3045849 (Bioorganic & medicinal chemistry letters, 2009)
Non-standard residues stand in square brackets, D forms with d. Residues, ends and D or L forms follow the SMILES beside them. *: point of attachment. Asu = N[C@@H](CCCCCC(=O)O)C(=O)O; NH(2-NH2-phenyl) = Nc1ccccc1N*

Key:
[1] = tested on: human lymphoblastoid cell line (GM15850); assay: Acetylation levels of endogenous histone H3 by western blot; format: cell-based; conditions: 20 µM, 48 h incubation, GM15850 cells
recombinant human HDAC1 = recombinant human HDAC1 (Homo sapiens, UniProt Q13547); assay: Inhibition of recombinant HDAC1; format: biochemical
Chain of recombinant human HDAC1 (Q13547 whole entry): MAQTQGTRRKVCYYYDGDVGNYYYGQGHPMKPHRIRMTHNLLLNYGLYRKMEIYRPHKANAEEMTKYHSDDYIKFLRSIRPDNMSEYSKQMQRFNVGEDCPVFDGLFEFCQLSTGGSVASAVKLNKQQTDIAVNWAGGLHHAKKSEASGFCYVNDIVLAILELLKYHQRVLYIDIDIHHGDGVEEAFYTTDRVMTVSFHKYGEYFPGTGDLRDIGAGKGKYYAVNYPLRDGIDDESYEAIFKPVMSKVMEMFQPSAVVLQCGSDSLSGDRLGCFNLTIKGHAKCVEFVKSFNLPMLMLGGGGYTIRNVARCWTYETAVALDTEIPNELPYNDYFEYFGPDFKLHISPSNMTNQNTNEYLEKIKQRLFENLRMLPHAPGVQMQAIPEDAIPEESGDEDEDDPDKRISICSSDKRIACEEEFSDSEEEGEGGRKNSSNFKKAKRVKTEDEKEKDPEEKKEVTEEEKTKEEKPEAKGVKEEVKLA

recombinant human HDAC3 = recombinant human HDAC3 (Homo sapiens, UniProt O15379); assay: Inhibition of recombinant HDAC3; format: biochemical
Chain of recombinant human HDAC3 (O15379 whole entry): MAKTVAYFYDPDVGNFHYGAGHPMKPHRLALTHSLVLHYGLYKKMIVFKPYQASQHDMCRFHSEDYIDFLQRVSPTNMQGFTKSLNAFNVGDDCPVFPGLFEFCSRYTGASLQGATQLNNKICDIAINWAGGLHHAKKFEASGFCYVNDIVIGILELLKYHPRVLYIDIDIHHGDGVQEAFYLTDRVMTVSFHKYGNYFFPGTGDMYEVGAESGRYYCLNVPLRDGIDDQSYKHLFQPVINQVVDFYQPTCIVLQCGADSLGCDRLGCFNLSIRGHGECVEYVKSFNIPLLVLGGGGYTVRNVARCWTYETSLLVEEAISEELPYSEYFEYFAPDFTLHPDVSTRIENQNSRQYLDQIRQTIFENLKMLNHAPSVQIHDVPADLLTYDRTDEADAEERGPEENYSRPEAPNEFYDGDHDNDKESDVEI
Chain of recombinant human HDAC3 (Q9Y618 395-489 partner limits assumed): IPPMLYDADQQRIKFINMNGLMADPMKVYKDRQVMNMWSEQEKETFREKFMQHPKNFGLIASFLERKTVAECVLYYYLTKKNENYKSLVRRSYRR

| SMILES | effect on acetylation of endogenous histone H3 [1] | IC50 (recombinant human HDAC1) [µM] | IC50 (recombinant human HDAC3) [µM] |
| --- | --- | --- | --- |
| N=C(N)NCCC[C@H](N)C(=O)NCC(=O)N[C@@H](CCCCCC(=O)Nc1ccccc1N)C(=O)Nc1ccccc1N [compound 10] | relatively stronger effects | – | – |
| Cc1ccc(C(=O)NCC(=O)NCCC(=O)Nc2ccccc2N)cc1 [compound 15] | relatively strong effect | – | – |
| N=C(N)NCCC[C@H](N)C(=O)NCC(=O)N[C@@H](CCCCCC(=O)Nc1ccccc1N)C(=O)NCC(=O)O [compound 13] (H-RG[Asu](NH(2-NH2-phenyl))G-OH; N-terminus and C-terminus assumed) | no effect | 532 | 69.3 |
| Cc1ccc(C(=O)N[C@@H](CCCNC(=N)N)C(=O)NCCC(=O)Nc2ccccc2N)cc1 [compound 16] | no such effect | – | – |
